According to article PMC12686243, “Synthesis and preclinical evaluation of FAP-targeting radiotracers for PET and optical imaging” (EJNMMI Radiopharmacy and Chemistry, 2025):

Columns and labels:
stability in human serum = assay type: in vitro ADME; conditions: 37 °C; for degradation in human serum: four-hour time point; for fraction of intact tracer: human serum, after 24 h
Protocol: Stability testing in human serum (Sigma Aldrich, Darmstadt, Germany) was carried out by incubation of the ^67Ga-labeled radiotracer at 37 °C. After defined time points an aliquot was withdrawn and the serum proteins precipitated, by dilution with “supersol” (20% v/v ethanol, 5% v/v 5 mM EDTA, 0.5% v/v Triton X-100, 0.1% m/v saponin in aqueous solution). After centrifugation, the supernatant was analyzed by radio-HPLC.

[1] = target: T1, hFAP (hFAP-HT1080 xenograft tissue sections) (Homo sapiens, UniProt Q12884); experiment: real-time binding to frozen hFAP-HT1080 xenograft tissue sections; conditions: ^67Ga-labeled
T1 construct: expressed in transfected cells; host or cells: HT1080 (human fibrosarcoma), lentiviral transduction
T1 sequence (Q12884 1-760): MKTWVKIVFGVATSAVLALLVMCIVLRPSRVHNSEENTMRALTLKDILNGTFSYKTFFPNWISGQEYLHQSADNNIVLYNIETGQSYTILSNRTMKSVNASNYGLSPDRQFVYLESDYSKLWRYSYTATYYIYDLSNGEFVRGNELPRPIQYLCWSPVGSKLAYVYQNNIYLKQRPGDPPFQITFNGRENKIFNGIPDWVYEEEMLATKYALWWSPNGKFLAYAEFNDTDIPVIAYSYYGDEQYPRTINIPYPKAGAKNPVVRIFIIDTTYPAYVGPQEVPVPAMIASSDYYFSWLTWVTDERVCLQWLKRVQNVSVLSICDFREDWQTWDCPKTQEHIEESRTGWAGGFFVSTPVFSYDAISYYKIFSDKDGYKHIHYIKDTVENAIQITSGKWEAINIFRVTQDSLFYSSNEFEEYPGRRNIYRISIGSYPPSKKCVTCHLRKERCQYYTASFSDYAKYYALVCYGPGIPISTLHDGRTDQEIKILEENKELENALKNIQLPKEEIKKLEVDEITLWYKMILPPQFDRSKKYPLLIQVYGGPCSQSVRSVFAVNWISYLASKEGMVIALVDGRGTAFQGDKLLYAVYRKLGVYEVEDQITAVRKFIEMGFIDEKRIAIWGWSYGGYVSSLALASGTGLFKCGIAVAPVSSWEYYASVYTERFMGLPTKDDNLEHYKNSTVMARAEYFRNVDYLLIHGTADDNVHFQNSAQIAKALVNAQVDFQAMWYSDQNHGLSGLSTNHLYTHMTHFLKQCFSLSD
Protocol: HT1080 cells were chosen as cellular and xenograft models, due to their similarity to FAP expressing fibroblasts and its origin (fibrosarcoma). For that purpose, HT1080 wild-type cells (WT-HT1080; European Collection of Authenticated Cell Cultures, ECACC, United Kingdom) were used as control. Cells were cultured in DMEM with GlutaMax (#31966021, Gibco), supplemented with 10% v/v fetal bovine serum (#S0615 Sigma Aldrich, Germany), 1% penicillin/streptomycin (#15140–122, Gibco, USA), 1% Non-essential amino acids under normoxic (5% CO2; 37 °C) conditions. Upon reaching ~ 90% confluency, cells were passaged. Typically, cultures were discarded after ~ 20 passages. […] Prior to in vitro experiments, cells were washed, trypsinized (0.05% Trypsin–EDTA, Gibco, USA), taken up in medium and an aliquot was counted using a CASY1 cell counter (Model TT, Schaerfe System, Reutlingen, Germany). […]
To determine binding kinetics (association rate constant ka, dissociation rate constant kd, and thermodynamic dissociation constant KD), real-time assay systems (LigandTracer Yellow/White for radioactivity and Green with Red/NIR + and NIR + + /IR detectors for fluorescence; Ridgeview Instruments AB, Sweden) were utilized. In a 100 mm petri dish, cells or tissue sections in medium (3–4 mL total volume), are located on one side, while the radioactive or fluorescent signal is detected on the opposite, elevated side. […]

[2] = target: T2, hFAP (vital hFAP-HT1080 cells) (Homo sapiens, UniProt Q12884); experiment: real-time binding (LigandTracer) to vital hFAP-HT1080 cells; conditions: fluorescent vs radioactive detection
T2 construct: expressed in transfected cells; host or cells: HT1080 (human fibrosarcoma), lentiviral transduction
T2 sequence (Q12884 1-760): T1 sequence (Q12884 1-760)
Protocol: To determine binding kinetics (association rate constant ka, dissociation rate constant kd, and thermodynamic dissociation constant KD), real-time assay systems (LigandTracer Yellow/White for radioactivity and Green with Red/NIR + and NIR + + /IR detectors for fluorescence; Ridgeview Instruments AB, Sweden) were utilized. In a 100 mm petri dish, cells or tissue sections in medium (3–4 mL total volume), are located on one side, while the radioactive or fluorescent signal is detected on the opposite, elevated side. Rotation on an inclined base in set intervals (30 s) allows continuous measurement of signal in the target (cells/tissue) against background area (no cells/tissue). Experiments were performed at room temperature, using CO2-independent medium, usually with 0.5–1% w/v bovine serum albumin, (#1ETA, Carl Roth, Germany). Association was determined through incubation with two distinct concentrations (between 1–5 and 4.5–10 nM, 60 min each, additive) for each compound. For that purpose, the same ligand preparation was typically employed for radioactive and fluorescent detection. This was followed by replacement with fresh medium and observation of dissociation for at least 2 h. Additionally, the dissociation rate constant was further investigated beyond 6 h, either using fluorescent detection or via gallium-67 (t1/2: 78.3 h). This approach provides reliable kinetic measurements in a 1:1 interaction setting, as previously shown (Onell and Andersson [2005]).
Binding data was evaluated using TraceDrawer (1.9.2, Ridgeview Instruments AB, Sweden). Traces were imported, potential spikes (> 100% sudden signal increases over previous datapoints) removed and each trace was normalized to its own baseline (= 0%) and highest value (= 100%, typically at the end of the second association phase). This allows comparing data across experiments and ultimately global fitting, without differences, e.g. of molar activity, affecting it. Typically, at least 3 individual traces per ligand, substrate and modality were recorded. Data was fitted in TraceDrawer using a 1:1 interaction model, with/without accounting for bulk effect. A 1:1 interaction is the simplest model, as it describes the binding of a ligand at a constant concentration to the target, with each one molecule of ligand binding to one molecule of target.

[3] = target: T3, human recombinant dipeptidylpeptidase IV (Homo sapiens, UniProt P27487); experiment: fluorometric enzyme inhibition assay for DPPIV; assay type: biochemical
T3 construct: purchased Cayman Chemical
T3 sequence (P27487 whole entry): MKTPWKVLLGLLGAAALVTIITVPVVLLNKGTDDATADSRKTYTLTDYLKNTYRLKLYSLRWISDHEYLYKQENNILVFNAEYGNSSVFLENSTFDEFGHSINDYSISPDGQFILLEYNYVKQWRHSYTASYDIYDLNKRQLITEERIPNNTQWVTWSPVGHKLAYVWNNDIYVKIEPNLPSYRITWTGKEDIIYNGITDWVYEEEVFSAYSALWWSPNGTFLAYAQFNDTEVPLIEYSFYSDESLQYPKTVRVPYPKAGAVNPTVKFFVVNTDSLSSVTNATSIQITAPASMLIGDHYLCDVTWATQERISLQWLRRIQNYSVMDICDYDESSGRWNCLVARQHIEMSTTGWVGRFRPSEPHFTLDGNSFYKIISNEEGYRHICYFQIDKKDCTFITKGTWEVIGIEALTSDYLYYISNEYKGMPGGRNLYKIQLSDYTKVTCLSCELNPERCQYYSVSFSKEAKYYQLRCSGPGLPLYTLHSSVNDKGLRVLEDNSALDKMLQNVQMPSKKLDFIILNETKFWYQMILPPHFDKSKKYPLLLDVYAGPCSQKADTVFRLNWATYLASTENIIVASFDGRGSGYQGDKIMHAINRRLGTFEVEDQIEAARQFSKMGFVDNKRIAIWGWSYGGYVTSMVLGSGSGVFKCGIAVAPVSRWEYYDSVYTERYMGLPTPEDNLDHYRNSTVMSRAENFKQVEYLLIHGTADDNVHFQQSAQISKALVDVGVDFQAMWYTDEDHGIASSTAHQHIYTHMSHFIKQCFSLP
Protocol: The affinity towards DPPIV was determined using a commercially available inhibitor screening assay kit (Cayman Chemical, USA). The assay was performed according to the manufacturer’s instructions, and the data was analyzed as described above.

[4] = system: hFAP-HT1080 and WT-HT1080 xenografts; experiment: in vivo fluorescence imaging of xenograft-bearing mice; set-up: species or system nude mice
Excerpt: Female athymic NMRI-nude mice (Rj:NMRI-Foxn1nu, Janvier Labs, France or Charles River, Germany) between 8 and 20 weeks of age were used. Subsequently, the prepared cells (1.0–2.0 × 10^6 hFAP/WT-HT1080 per animal) were subcutaneously injected into the right and left thigh, respectively. Xenograft tissue for real-time binding experiments was derived from animals injected with both target-positive and negative cells, however only showing growth of one tumor entity. When approaching endpoints, mice were anesthetized and euthanized. The tumor was quickly removed, frozen in − 45 °C 2-methylbutane and stored in sealed tubes at − 80 °C.
Optical imaging was performed using a multimodal IVIS-CT (Perkin Elmer, USA). Compounds were injected [0.09 mg/kg (n = 1)/0.33 mg/kg (n = 3) for NODAGA-FAP647; 0.17 mg/kg (n = 3) for NODAGA-FAP800, diluted in 150 µL of sterile 0.9% NaCl solution] into the lateral tail vein, either directly or via catheter. Fluorescence imaging started ~ 2 min post injection for 2–3 h, with 1 min, 3–5 min and 10 min intervals, along with a white-light image. Additional scans were performed after 24 h and, if applicable, later. The fluorescence of the respective fluorophore was captured (NODAGA-FAP647: λEx/Em = 640/680 nm, NODAGA-FAP800: λEx/Em = 745/800 nm). Emitted fluorescence intensity was analyzed (Perkin Elmer, Living Image 4.7.4) in raw data images.

[5] = target: T4, hFAPα, recombinant protein (Homo sapiens, UniProt Q12884); experiment: fluorometric enzyme inhibition assay for FAP; assay type: biochemical; conditions: Morrison equation for tight binding inhibitors; substrate Ala-Pro-AMC; mean ± SD
T4 construct: purchased
T4 sequence (Q12884 1-760): T1 sequence (Q12884 1-760)
Protocol: Affinity towards FAP was tested using a commercially available fluorometric assay. At the day of the experiment, all tested compounds were diluted in assay buffer (DPP assay buffer, BPS Bioscience, San Diego, CA, USA,) in a 1:1 dilution series, resulting in eleven concentrations, ranging from 2000 nM to 1.950 nM, equal to 200 nM to 0.195 nM per well. The substrate Ala-Pro-AMC (BPS Bioscience, concentration per well: 5 μM, Km = 244 μM (Edosada et al. [2006])) was pipetted along with the inhibitor into a 96-well plate. Subsequently, the enzyme (hFAPα, recombinant protein) was dissolved in assay buffer and added to the wells. The final concentration of DMSO per well was 0.2%. The 96-well plate was immediately loaded into a multimode plate reader (Biotek Cytation 5, Agilent, Santa Clara, CA, USA). The fluorescence intensity for each well was measured over a time course of 30 min with measurement intervals of 15 s, an excitation wavelength of 360 ± 20 nm and an emission wavelength of 450 ± 20 nm. Data (relative fluorescence units, RFU) over the total measurement time was analyzed by linear regression. The slope of the resulting graphs was analyzed over the inhibitor concentration. The enzyme inhibition constant Ki was calculated using the Morrison equation for tight binding inhibitors (Williams and Morrison [1979]). […]

| faster association with fluorescent compared to radioactive detection [2] | faster dissociation with fluorescent compared to radioactive detection [2] | IC50 [3] [nM] | ratio hFAP-HT1080/muscle fluorescence ([4]; 120 min post injection) | ratio hFAP/WT-HT1080 tumor fluorescence ([4]; 120 min post injection) | fluorescence in hFAP-HT1080 tumor higher than in WT-HT1080 tumor or muscle ([4]; 24 h post injection) [%] | reduction of fluorescence signal in hFAP-HT1080 tumor ([4]; after 24 h post injection) [%] | WT-HT1080 to muscle ratio ([4]; over the imaging period) | time to plateau of fluorescence in hFAP-HT1080 tumor ([4]; post injection) | Ki [5] [nM] | SMILES | degradation in human serum (stability in human serum) | fraction of intact tracer (stability in human serum) [%] | Kd [1] [nM] |
| --- | --- | --- | --- | --- | --- | --- | --- | --- | --- | --- | --- | --- | --- |
| – | – | – | – | – | – | – | – | – | – | CN(CCCN1CCN(C(=O)[C@H](CCCCNC(=O)CC[C@H](C(=O)[O-])N2CCN(CC(=O)[O-])CCN(CC(=O)[O-])CC2)NC(=O)CCOCCOCCOCCOCCNC(=O)CCCCC[N+]2=C(C=CC=CC=C3N(CCCS(=O)(=O)O)c4ccc(S(=O)(=O)O)cc4C3(C)C)C(C)(CCCS(=O)(=O)O)c3cc(S(=O)(=O)[O-])ccc32)CC1)c1ccc2nccc(C(=O)NCC(=O)N3CC(F)(F)C[C@H]3C#N)c2c1.[67Ga+3] (stereo partly shown) [[^67Ga]Ga-NODAGA-FAP647] | no degradation | 56 | 0.025 |
| ~ 50% | ~ 30% | > 10000 | ~ 1.9 | ~ 2.2 | 60 | 43 | ~ 1 | ~ 20 min | 0.343 ± 0.153 | CN(CCCN1CCN(C(=O)[C@H](CCCCNC(=O)CC[C@H](C(=O)O)N2CCN(CC(=O)O)CCN(CC(=O)O)CC2)NC(=O)CCOCCOCCOCCOCCNC(=O)CCCCCN2/C(=C/C=C3\CCCC(/C=C/C4=[N+](CCCCS(=O)(=O)[O-])c5ccc(S(=O)(=O)O)cc5C4(C)C)=C3Oc3ccc(S(=O)(=O)O)cc3)C(C)(C)c3cc(S(=O)(=O)O)ccc32)CC1)c1ccc2nccc(C(=O)NCC(=O)N3CC(F)(F)C[C@H]3C#N)c2c1 [NODAGA-FAP800] | – | – | – |
| – | – | – | – | – | – | – | – | – | – | CN(CCCN1CCN(C(=O)[C@H](CCCCNC(=O)CC[C@H](C(=O)[O-])N2CCN(CC(=O)[O-])CCN(CC(=O)[O-])CC2)NC(=O)CCOCCOCCOCCOCCNC(=O)CCCCCN2C(=CC=C3CCCC(C=CC4=[N+](CCCCS(=O)(=O)[O-])c5ccc(S(=O)(=O)O)cc5C4(C)C)=C3Oc3ccc(S(=O)(=O)O)cc3)C(C)(C)c3cc(S(=O)(=O)O)ccc32)CC1)c1ccc2nccc(C(=O)NCC(=O)N3CC(F)(F)C[C@H]3C#N)c2c1.[67Ga+3] [[^67Ga]Ga-NODAGA-FAP800] | no degradation | 22 | 0.018 |
